SMILES strings stand for the structures.

From US20180116933A1, “ANTI-OXIDATIVE OR ANTI-AGING COMPOSITION CONTAINING 5-ADAMANTAN-1-YL-N-(2,4-DIHYDROXYBENZYL)-2,4-DIMETHOXYBENZAMIDE” (Amorepacific Corporation, priority 2015, published 2018) come the findings set out here.

A short description of series [1]: DPPH free radical scavenging evaluation. The format is biochemical. Particulars: 0 to 200 μg/ml, DPPH 0.2 mM in methanol, 30 minutes, absorbance 517 nm (FIG. 2). Here is the method:
The DPPH free radical scavenging evaluation method was performed as follows.
In 5-adamantan-1-yl-N-(2,4-dihydroxybenzyl)-2,4-dimethoxybenzamide (referred to as ‘AP736’ in FIG. 2) prepared in Example, a reaction product adjusted to a concentration of from 0 to 200 μg/ml and a methanol solution of DPPH (0.2 mM) were incubated for 30 minutes. The absorbance of the solution was measured at 517 nm. The scavenging ability was expressed by the value obtained by comparing the absorbance of the solution to that (100%) of the control DPPH solution in % as presented in the following Mathematical Formula 1.
(In general: Loss of DPPH colour is used to gauge radical scavenging.)

Series [2] relates to Raw 264.7 cells. Description: Cytotoxicity test (MTT method) in Raw 264.7 cells. The series is classed as cell-based. Here is the method: RAW264.7 cells (obtained from ATCC (Rockville, Md., USA) as a murine macrophage cell line) were incubated in RPMI 1640 medium supplemented with FBS (10% heat-inactivated fetal bovine serum; Gibco, Grand Island, N.Y., USA), glutamine, antibiotics (penicillin and streptomycin) at 37° C. and 5% CO2.
In all experiments, cells were detached with a cell scraper. When cells were incubated at a concentration of 2×10^6 cells/mL in the experiment, the percentage of dead cells was 1% or less (confirmed by a trypan blue dye exclusion method).
In order to determine the appropriate concentration of extract treatment for anti-inflammatory evaluation of 5-adamantan-1-yl-N-(2,4-dihydroxybenzyl)-2,4-dimethoxybenzamide, the cytotoxicity of 5-adamantan-1-yl-N-(2,4-dihydroxybenzyl)-2,4-dimethoxybenzamide at each concentration was evaluated in the cells used in the experiments.
Raw 264.7 cells in the subculture were plated on a well plate at a density of […]. After 18 hours of cell incubation, the cells were subjected to a sample treatment so that the concentration of 5-adamantan-1-yl-N-(2,4-dihydroxybenzyl)-2,4-dimethoxybenzamide (referred to as ‘AP736’ in FIG. 1) was from 0 to 30 μM. The cells were incubated for 8 hours or 24 hours in an incubator. The cytotoxic effect was evaluated by the conventional MTT method. Before the last 3 hours of incubation, 10 μL of MTT {3-[4,5-dimethylthiazol-2-yl]-2,5-diphenyltetrazolium bromide} solution (10 mg/mL in phosphate-buffered saline, pH 7.4) was added to each well. To each well, 15% SDS (sodium dodecyl sulfate) was added to terminate the reaction, and the formazan crystal was then dissolved therein. Thereafter, the absorbance at 570 nm was measured on a microplate reader.
A general note: Formazan colour is commonly taken as a measure of viable cells.

Series [3] concerns matrix metalloprotease-1 (MMP-1). Description: MMP-1 assay: UV-induced MMP-1 expression in HS68 human fibroblasts (MMP-1 ELISA kit). The format is cell-based. Particulars: UV-irradiated HS68 cells, 0.1, 0.5, and 1 μM, 48 hours (FIG. 3). Here is the method: In order to confirm the anti-aging effect of the sample, an experiment to see how much 5-adamantan-1-yl-N-(2,4-dihydroxybenzyl)-2,4-dimethoxybenzamide can inhibit the expression of matrix metalloprotease-1 (MMP-1) to be induced by ultraviolet (UV) rays was performed.
Human fibroblasts (HS68 cells, purchased from ATCC (Rockville, Md., USA)) were plated on a well plate at a density of 7.5×10^4 cells/well, then incubated in DMEM (Dulbecco's Modified Eagle's Medium) containing 10% FBS for 24 hours, then washed with PBS (phosphate-buffered saline), then 0.5 ml of PBS was added thereto, and the expression of MMP-1 was induced by irradiating the resultant incubated cells with ultraviolet rays. After changing to Serum-Free DMEM, the resultant was treated with 5-adamantan-1-yl-N-(2,4-dihydroxybenzyl)-2,4-dimethoxybenzamide (referred to as ‘AP736’ in FIG. 3) prepared in Example. The amount of the supernatant obtained after incubation for a certain period of time (48 hours) was measured by using an MMP-1 ELISA kit.
In other words, HS68 cells of human dermal fibroblasts were treated with ultraviolet rays to increase the expression of MMP-1, and the resulting HS68 cells were then treated with each sample to see whether the expression of MMP-1 decreased. The experimental results are illustrated in FIG. 3. […]
On the technique in general: In an ELISA, binding on a coated surface is turned into a signal by an enzyme label.

On to `COc1cc(OC)c(C23CC4CC(CC(C4)C2)C3)cc1C(=O)NCc1ccc(O)cc1O` [AP736, 5-adamantan-1-yl-N-(2,4-dihydroxybenzyl)-2,4-dimethoxybenzamide], for which, in series [1], the “percentage of DPPH radical scavenging activity” value is given as “increases”. For the same molecule, the cell viability result in series [2] (10 μM, 8 hours) was “about 100%”; in series [2] (10 μM, 24 hours), “about 100%”; in series [2] (20 μM, 8 hours), “about 100%”; in series [2] (20 μM, 24 hours), “about 100%”; in series [2] (30 μM, 24 hours), “about 80%”. In addition, the “expression of MMP-1” value in series [3] was “tended to decrease”.
